Source: ChEMBL document CHEMBL6115019, “Discovery and Optimization of Novel Apo-IDO1 Inhibitors by a Pharmacophore-Based Structural Simplification Strategy” (J Med Chem, 2025)
Activity calls are given as the source filed them. The calls are words filed in the database; no cut-off is given here.

Experiments:
Mus musculus [1] = assay: In vivo induction of T cell infiltration in spleen of Balb/c mouse implanted with mouse CT26 cells assessed as […] T cells at 15 mg/kg, ip qd treated for 14 days consecutively by flow cytometry (reference value: 5.55 %); type: functional; conditions: time 14 day
Mus musculus [2] = assay: In vivo induction of T cell infiltration in spleen of Balb/c mouse implanted with mouse CT26 cells assessed as CD3+CD4+ T cells at 15 mg/kg, ip qd treated for 14 days consecutively by flow cytometry (reference value: 8.28 %); type: functional; conditions: time 14 day
Mus musculus [3] = assay: In vivo induction of T cell infiltration in spleen of Balb/c mouse implanted with mouse CT26 cells assessed as […] T cells at 60 mg/kg, ip qd treated for 14 days consecutively by flow cytometry (reference value: 5.55 %); type: functional; conditions: time 14 day
[4] = biological target: Tryptophan 2,3-dioxygenase (Homo sapiens) (UniProt P48775); assay: Inhibition of human TDO2 transfected in human HeLa cells using L-tryptophan as substrate at 2 uM measured after 24 hrs relative to control; type: cell-based
Tryptophan 2,3-dioxygenase (Homo sapiens), sequence (P48775 whole entry, looked up): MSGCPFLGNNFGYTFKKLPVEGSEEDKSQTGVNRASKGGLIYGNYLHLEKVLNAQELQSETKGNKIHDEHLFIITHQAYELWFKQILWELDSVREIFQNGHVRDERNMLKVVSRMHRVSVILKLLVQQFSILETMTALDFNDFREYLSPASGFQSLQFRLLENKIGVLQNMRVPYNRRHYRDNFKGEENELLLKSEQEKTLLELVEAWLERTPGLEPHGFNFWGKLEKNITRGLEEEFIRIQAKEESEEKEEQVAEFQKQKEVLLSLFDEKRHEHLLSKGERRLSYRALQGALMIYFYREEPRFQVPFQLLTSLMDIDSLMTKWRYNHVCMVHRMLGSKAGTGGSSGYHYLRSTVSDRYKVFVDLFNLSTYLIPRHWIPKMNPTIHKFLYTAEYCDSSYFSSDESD

Mus musculus [5] = assay: In vivo induction of T cell infiltration in spleen of Balb/c mouse implanted with mouse CT26 cells assessed as CD3+CD4+ T cells at 60 mg/kg, ip qd treated for 14 days consecutively by flow cytometry (reference value: 8.28 %); type: functional; conditions: time 14 day
[6] = Cmax in Sprague-Dawley rat at 2 mg/kg, iv measured for 5 to 600 mins by LC-MS/MS analysis; type: ADME, organism-based; conditions: in vivo, time 5-600 min
[7] = AUC (0 to infinity) in Sprague-Dawley rat at 2 mg/kg, iv measured for 5 to 600 mins by LC-MS/MS analysis; type: ADME, organism-based; conditions: in vivo, time 5-600 min
[8] = Toxicity in syngeneic Balb/c mouse implanted with mouse CT26 cells assessed as animal death at 15 to 60 mg/kg, ip qd treated for 14 days consecutively; type: organism-based; conditions: in vivo, 336 h, dose 15-60 mg/kg, time 14 day
[9] = Oral bioavailability in Sprague-Dawley rat at 20 mg/kg measured for 5 to 600 mins by LC-MS/MS analysis; type: ADME, organism-based; conditions: in vivo, time 5-600 min
[10] = Toxicity in syngeneic Balb/c mouse implanted with mouse CT26 cells assessed as damage in spleen at 15 to 60 mg/kg, ip qd treated for 14 days consecutively by H and E staining based analysis; type: organism-based; conditions: in vivo, 336 h, dose 15-60 mg/kg, time 14 day
Mus musculus [11] = assay: In vivo induction of T cell infiltration in tumor tissue of Balb/c mouse implanted with mouse CT26 cells assessed as CD3+CD4+ T cells at 30 mg/kg, ip qd treated for 14 days consecutively by flow cytometry (reference value: 9.90 %); type: functional; conditions: time 14 day
Mus musculus [12] = assay: In vivo induction of T cell infiltration in tumor tissue of Balb/c mouse implanted with mouse CT26 cells assessed as […] T cells at 15 mg/kg, ip qd treated for 14 days consecutively by flow cytometry (reference value: 16.5 %); type: functional; conditions: time 14 day
[13] = Tmax in Sprague-Dawley rat at 2 mg/kg, iv measured for 5 to 600 mins by LC-MS/MS analysis; type: ADME, organism-based; conditions: in vivo, time 5-600 min
[14] = MRT (0 to t) in Sprague-Dawley rat at 20 mg/kg, ip measured for 5 to 600 mins by LC-MS/MS analysis; type: ADME, organism-based; conditions: in vivo, time 5-600 min
CT26 = assay: Antitumor activity against mouse CT26 cells implanted in syngeneic Balb/c mouse assessed as decrease in Ki-67 level at 15 to 60 mg/kg, ip qd treated for 14 days consecutively by IHC analysis; type: functional, organism-based; conditions: dose 15-60 mg/kg, time 14.0 day

SMILES: O=C(CCCc1ccc(-c2ccc(F)cn2)cc1)Nc1ccc(F)cc1
- Activity (Mus musculus [1]): 7.23%
- Activity (Mus musculus [2]): 9.31%
- Activity (Mus musculus [3]): 12.7%
- inhibition [4]: 2.6%
- Activity (Mus musculus [5]): 16.2%
- Cmax [6]: 569 ng/mL
- AUC(0-inf) [7]: 287 ng·h/mL
- Activity [8]: Non-toxic
- bioavailability [9]: 46.5%
- Activity [10]: Non-toxic
- Activity (Mus musculus [11]): 16.6%
- Activity (Mus musculus [12]): 25.8%
- Tmax [13]: 7.5 min
- MRT last [14]: 96.6 min
- Activity (CT26): Active
